Test results as given in patent US20070135406A1, “Diazabicyclononene and tetrahydropyridine derivatives with a new side-chain” (priority 2003, published 2007).

Biological target: T1, human recombinant renin (Homo sapiens, UniProt P00797)
T1 sequence (P00797 67-406): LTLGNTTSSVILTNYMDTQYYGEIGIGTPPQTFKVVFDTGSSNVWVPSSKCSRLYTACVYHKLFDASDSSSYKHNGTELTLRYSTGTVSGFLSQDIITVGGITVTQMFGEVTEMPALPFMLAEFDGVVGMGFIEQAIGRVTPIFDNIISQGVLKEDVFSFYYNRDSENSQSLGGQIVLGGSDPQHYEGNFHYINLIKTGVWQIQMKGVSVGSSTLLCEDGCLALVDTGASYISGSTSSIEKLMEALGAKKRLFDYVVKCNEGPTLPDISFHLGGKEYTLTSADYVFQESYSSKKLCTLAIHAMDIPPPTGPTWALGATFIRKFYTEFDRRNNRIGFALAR
Test: Inhibition of human recombinant renin (enzymatic in vitro assay, Ang I detected by EIA)
Assay type: biochemical
Settings: human recombinant renin 0.16 ng/mL, synthetic human angiotensin(1-14) 0.5 μM, 37° C. for 3 h
Experimental: Inhibition of Human Recombinant Renin by the Compounds of the Invention The enzymatic in vitro assay was performed in 384well polypropylene plates (Nunc). The assay buffer consisted of 10 mM PBS (Gibco BRL) including 1 mM EDTA and 0.1% BSA. The incubates were composed of 50 μL per well of an enzyme mix and 2.5 μL of renin inhibitors in DMSO. The enzyme mix was premixed at 4° C. and consists of the following components: • human recombinant renin (0.16 ng/mL).synthetic human angiotensin(1-14) (0.5 μM) • hydroxyquinoline sulfate (1 mM) The mixtures were then incubated at 37° C. for 3 h. To determine the enzymatic activity and its inhibition, the accumulated Ang I was detected by an enzyme immunoassay (EIA) in 384well plates (Nunc). 5 μL of the incubates or standards were transferred to immuno plates which were previously coated with a covalent complex of Ang I and bovine serum albumin (Ang I—BSA). […] of Ang I-antibodies in essaybuffer above including 0.01% Tween 20 were added and a primary incubation made at 4° C. overnight The plates were washed 3 times with PBS including 0.01% Tween 20, and then incubated for 2 h at rt with an antirabbit-peroxidase coupled antibody (WA 934, Amersham).

IC50: 0.79 nM
SMILES: COCCCOc1nccc(CN(C(=O)C2=C(c3ccc(CCCOc4c(F)ccc(F)c4Cl)cc3)C[C@@H]3CC[C@H]2N3)C2CC2)c1C (racemic) [Example 1, (rac.)-(1R*,5S*)-3-{4-[3-(2-Chloro-3,6-difluorophenoxy)propyl]phenyl}-8-azabicyclo[3.2.1]oct-2-ene-2-carboxylic acid cyclopropyl-[2-(3-methoxy-propoxy)-3-methylpyridin-4-ylmethyl]amide]
